The target of test [1] is Serine/threonine-protein kinase AKT (Homo sapiens) (UniProt P31751+Q9Y243+P31749). Description: Inhibition of PM2.5 induced Akt phosphorylation upregulation in human A549 cells at 10 uM by Western blot analysis relative to control. In kind it is cell-based.
In test [2] the test system is A549. Description: Inhibition of PM2.5 induced PI3K upregulation in human A549 cells at 10 uM by Western blot analysis relative to control. In kind it is functional. (In general: In western blotting, separated proteins are transferred to a membrane and probed.)
For test [3], the system named is A549. The test is described as follows: Inhibition of PM2.5 induced PI3K expression in human A549 cells at 10 uM by qRT-PCR analysis. In kind it is functional, cell-based. For orientation: Quantitative PCR measures a nucleic acid by following its amplification.
In test [4] the test system is A549. Description: Inhibition of PM2.5 induced Akt phosphorylation in human A549 cells at 10 uM […]. The format is functional, cell-based.
Test [5] has as its system A549. Description: Inhibition of PM2.5 induced E-cadherin downregulation in human A549 cells at 10 uM by Western blot analysis. The format is functional, cell-based.
For test [6], the system named is A549. Description: Downregulation of PM2.5 induced vimentin expression in human A549 cells at 10 uM by Western blot analysis. The format is functional, cell-based.
In test [7] the test system is A549. The test is described as follows: Downregulation of PM2.5 induced Snail expression in human A549 cells. The format is functional, cell-based.
The test system of test [8] is A549. Description: Downregulation of PM2.5 induced Slug expression in human A549 cells. In kind it is functional, cell-based.

Calls of active or inactive are those of the source. The rule behind the calls is not given here.

Chain of Serine/threonine-protein kinase AKT (Homo sapiens) (P31749 whole entry, looked up): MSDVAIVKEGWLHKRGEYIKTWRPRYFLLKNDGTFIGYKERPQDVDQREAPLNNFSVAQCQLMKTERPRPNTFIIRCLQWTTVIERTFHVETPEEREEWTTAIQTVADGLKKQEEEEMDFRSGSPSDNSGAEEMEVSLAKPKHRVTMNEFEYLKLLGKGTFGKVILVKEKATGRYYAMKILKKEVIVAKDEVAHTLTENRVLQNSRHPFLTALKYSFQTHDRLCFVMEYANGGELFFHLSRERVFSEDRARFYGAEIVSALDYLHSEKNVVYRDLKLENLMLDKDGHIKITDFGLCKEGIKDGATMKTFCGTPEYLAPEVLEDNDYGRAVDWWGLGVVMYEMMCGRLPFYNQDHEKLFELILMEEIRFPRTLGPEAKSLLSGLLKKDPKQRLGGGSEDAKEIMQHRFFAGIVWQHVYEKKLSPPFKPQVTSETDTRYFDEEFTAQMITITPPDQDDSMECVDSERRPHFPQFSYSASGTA
Chain of Serine/threonine-protein kinase AKT (Homo sapiens) (P31751 whole entry, looked up): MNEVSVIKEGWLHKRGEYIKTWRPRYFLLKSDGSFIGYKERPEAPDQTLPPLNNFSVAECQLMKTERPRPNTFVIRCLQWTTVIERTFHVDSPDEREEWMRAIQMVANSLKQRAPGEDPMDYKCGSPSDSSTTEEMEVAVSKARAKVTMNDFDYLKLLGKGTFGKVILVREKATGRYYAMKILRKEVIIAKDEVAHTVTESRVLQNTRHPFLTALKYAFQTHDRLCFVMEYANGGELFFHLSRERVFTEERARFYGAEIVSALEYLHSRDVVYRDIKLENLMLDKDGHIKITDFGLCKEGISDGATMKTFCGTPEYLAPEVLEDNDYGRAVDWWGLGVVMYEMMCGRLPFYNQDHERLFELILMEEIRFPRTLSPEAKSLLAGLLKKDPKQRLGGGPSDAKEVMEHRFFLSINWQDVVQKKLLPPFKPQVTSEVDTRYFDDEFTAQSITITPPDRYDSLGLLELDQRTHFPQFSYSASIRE
Chain of Serine/threonine-protein kinase AKT (Homo sapiens) (Q9Y243 whole entry, looked up): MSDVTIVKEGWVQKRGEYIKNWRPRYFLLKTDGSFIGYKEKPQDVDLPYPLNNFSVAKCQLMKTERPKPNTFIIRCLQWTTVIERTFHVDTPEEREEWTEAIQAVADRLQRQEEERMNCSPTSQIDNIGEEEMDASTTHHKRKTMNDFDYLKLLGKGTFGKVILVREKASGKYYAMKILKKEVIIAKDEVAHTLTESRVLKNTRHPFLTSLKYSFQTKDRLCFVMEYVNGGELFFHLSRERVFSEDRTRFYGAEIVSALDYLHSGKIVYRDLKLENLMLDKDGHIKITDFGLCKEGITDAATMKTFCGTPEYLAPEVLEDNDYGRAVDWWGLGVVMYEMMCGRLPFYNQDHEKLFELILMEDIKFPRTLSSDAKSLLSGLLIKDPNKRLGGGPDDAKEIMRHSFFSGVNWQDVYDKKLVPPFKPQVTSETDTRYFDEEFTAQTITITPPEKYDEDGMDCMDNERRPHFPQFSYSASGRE

As for `O=c1cc(N2CCOCC2)oc2c(-c3ccccc3)cccc12` [LY-294002], in test [1], the inhibition (in general, the relative decrease from the control value, in per cent) was found to be 15%. The molecule further returned an inhibition at 10 µM in the test with A549 [2] of 84.3%. For the same molecule, the inhibition entry in the test with A549 [3], with A549 [4] and in the test on A549 [5] was “Active” each time. Also, the outcome in the test with A549 [6], with A549 [7] and with A549 [8] was Active.

The values are drawn from ChEMBL document CHEMBL5137131, “Mechanisms of Biochanin A Alleviating PM2.5 Organic Extracts-Induced EMT of A549 Cells through the PI3K/Akt Pathway” (J Nat Prod, 2022).
